Details: Liquid

CCC(C)O (stereo unspecified) [butan-2-ol]
Details | vapor or sublimation pressure [kPa]
349.73 K | 40
356.36 K | 53.33
361.77 K | 66.66
366.36 K | 79.99
370.38 K | 93.32
371.86 K | 98.66

CO [methanol]
Details | vapor or sublimation pressure [kPa]
315.75 K | 40
322.15 K | 53.33
327.34 K | 66.66
331.73 K | 79.99
335.57 K | 93.32
336.98 K | 98.66

CCCO [propan-1-ol]
Details | vapor or sublimation pressure [kPa]
347.55 K | 40
354.18 K | 53.33
359.56 K | 66.66
364.11 K | 79.99
368.08 K | 93.32
369.55 K | 98.66

CCCCO [butan-1-ol]
Details | vapor or sublimation pressure [kPa]
366.76 K | 40
373.74 K | 53.33
379.43 K | 66.66
384.26 K | 79.99
388.49 K | 93.32
390.04 K | 98.66

CC(C)CO [2-methyl-1-propanol]
Details | vapor or sublimation pressure [kPa]
357.45 K | 40
364.17 K | 53.33
369.67 K | 66.66
374.35 K | 79.99
378.45 K | 93.32
379.96 K | 98.66

CC(C)O [propan-2-ol]
Details | vapor or sublimation pressure [kPa]
333.94 K | 40
340.18 K | 53.33
345.25 K | 66.66
349.55 K | 79.99
353.3 K | 93.32
354.67 K | 98.66

CCO [ethanol]
Details | vapor or sublimation pressure [kPa]
329.62 K | 40
335.99 K | 53.33
341.2 K | 66.66
345.6 K | 79.99
349.42 K | 93.32
350.82 K | 98.66

CC(C)(C)O [2-methylpropan-2-ol]
Details | vapor or sublimation pressure [kPa]
333.9 K | 40
340.13 K | 53.33
345.21 K | 66.66
349.53 K | 79.99
353.32 K | 93.32
354.61 K | 98.66

C1CCOCC1 [tetrahydropyran]
Details | mass density [kg/m3]
298.15 K, 101.33 kPa, Vibrating tube method | 879

Details | vapor or sublimation pressure [kPa]
332.98 K | 40
341.09 K | 53.33
347.72 K | 66.66
353.38 K | 79.99
358.37 K | 93.32
360.22 K | 98.66
361.23 K | 101.32

Reference: the NIST ThermoML archive (doi:10.1021/je800145h)
